Our source for the IC50 values is patent publication US11970498B2, “CDK2 inhibitors” (BLUEPRINT MEDICINES CORPORATION, priority 2021, dated 2024).

A value given as a limit tells only on which side of the number the result lay.

The target of one assay is CDK2/Cyclin E (Homo sapiens, UniProt P24941). In words: CDK2/Cyclin E biochemical phosphorylation assay (Caliper mobility shift). Particulars: apparent IC50; 1.0 mM ATP or ATP Km; 1.25 nM enzyme; 25° C.; read-out: CDK2/cyclin E1 IC50. Summed up: (§1)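 7.5 µM 5-FAM-QSPKKG-CONH2 peptide phosphorylated by CDK2/Cyclin E (1.25 nM) or GST-CDK1/Cyclin B1 (1.5 nM) at 1.0 mM ATP or ATP Km, in HEPES pH 7.5, MgCl2, Brij-35, DTT, 1% DMSO, 25 °C to 10–20% conversion. EDTA stop; Caliper mobility-shift readout; apparent IC50 from percent activity vs log concentration.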

A further assay has as its target T1, CDK1/Cyclin B1, GST-tag (Homo sapiens, UniProt P06493).
T1 construct: GST
In words: CDK1/Cyclin B1 biochemical phosphorylation assay (Caliper mobility shift). As to conditions: apparent IC50; 1.0 mM ATP or ATP Km; 1.5 nM enzyme; 25° C. Summed up:
as §1

T1 sequence (P06493 whole entry): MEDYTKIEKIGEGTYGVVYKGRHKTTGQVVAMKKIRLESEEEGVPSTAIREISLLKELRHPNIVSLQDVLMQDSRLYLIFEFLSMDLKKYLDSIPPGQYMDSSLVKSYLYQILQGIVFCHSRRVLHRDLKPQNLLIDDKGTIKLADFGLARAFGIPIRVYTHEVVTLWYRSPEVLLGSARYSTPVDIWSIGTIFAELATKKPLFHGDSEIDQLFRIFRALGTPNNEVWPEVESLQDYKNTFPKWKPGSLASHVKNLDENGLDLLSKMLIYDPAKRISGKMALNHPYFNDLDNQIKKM
T1 sequence (P14635 whole entry partner): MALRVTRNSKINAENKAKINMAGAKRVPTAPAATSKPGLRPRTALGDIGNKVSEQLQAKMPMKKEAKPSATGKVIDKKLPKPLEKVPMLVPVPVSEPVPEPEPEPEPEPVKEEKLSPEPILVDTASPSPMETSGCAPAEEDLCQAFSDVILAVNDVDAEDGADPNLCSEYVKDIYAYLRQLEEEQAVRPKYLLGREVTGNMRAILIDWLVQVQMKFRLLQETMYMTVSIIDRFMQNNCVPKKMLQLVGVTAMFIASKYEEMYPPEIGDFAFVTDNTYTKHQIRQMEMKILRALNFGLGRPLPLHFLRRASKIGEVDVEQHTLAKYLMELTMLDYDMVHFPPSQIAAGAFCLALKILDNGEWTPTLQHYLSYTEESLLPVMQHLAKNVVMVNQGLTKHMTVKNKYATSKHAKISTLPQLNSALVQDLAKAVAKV

Regarding `C[C@@H](O)c1nn(CC2CCOCC2)c2nc(Nc3cc(OC(F)F)[nH]n3)cnc12` (single isomer, unassigned) [Example 175, (R)-1-(6-((5-(difluoromethoxy)-1H-pyrazol-3-yl)amino)-1-((tetrahydro-2H-pyran-4-yl)methyl)-1H-pyrazolo[3,4-b]pyrazin-3-yl)ethan-1-ol or (S)-1-(6-((5-(difluoromethoxy)-1H-pyrazol-3-yl)amino)-1-((tetrahydro-2H-pyran-4-yl)methyl)-1H-pyrazolo[3,4-b]pyrazin-3-yl)ethan-1-ol], the IC50 on CDK2/Cyclin E was not above 10 nM; at CDK1/Cyclin B1, GST-tag, 100 to 500 nM.
Consider `FC[C@H](C1CCOCC1)n1ncc2ncc(Nc3cc(OC(F)F)[nH]n3)nc21` (single isomer, unassigned) [Example 183], for which the IC50 was 30 to 100 nM on CDK2/Cyclin E and not below 500 nM at CDK1/Cyclin B1, GST-tag.
As to `COc1cc(Nc2cnc3cnn(C[C@H]4C[C@@H]4C#N)c3n2)n[nH]1` (single isomer, unassigned) [Example 196, (1S,2S)-2-((6-((5-methoxy-1H-pyrazol-3-yl)amino)-1H-pyrazolo[3,4-b]pyrazin-1-yl)methyl)cyclopropane-1-carbonitrile or (1R,2R)-2-((6-((5-methoxy-1H-pyrazol-3-yl)amino)-1H-pyrazolo[3,4-b]pyrazin-1-yl)methyl)cyclopropane-1-carbonitrile], the IC50 at CDK2/Cyclin E was more than 100 nM; on CDK1/Cyclin B1, GST-tag it was not below 500 nM.
Consider `[2H]C([2H])(C1CCOCC1)n1ncc2ncc(Nc3cc(OC(F)F)[nH]n3)nc21` [Example 226, N-(5-(difluoromethoxy)-1H-pyrazol-3-yl)-1-((tetrahydro-2H-pyran-4-yl)methyl-d2)-1H-pyrazolo[3,4-b]pyrazin-6-amine], for which the IC50 is not above 10 nM at CDK2/Cyclin E and 100 to 500 nM at CDK1/Cyclin B1, GST-tag.
In the case of `C[C@@H](c1cnccc1F)n1ncc2ncc(Nc3cc(OC(F)F)[nH]n3)nc21` (single isomer, unassigned) [Example 173, (S)-N-(5-(difluoromethoxy)-1H-pyrazol-3-yl)-1-(1-(4-fluoropyridin-3-yl)ethyl)-1H-pyrazolo[3,4-b]pyrazin-6-amine or (R)-N-(5-(difluoromethoxy)-1H-pyrazol-3-yl)-1-(1-(4-fluoropyridin-3-yl)ethyl)-1H-pyrazolo[3,4-b]pyrazin-6-amine], the IC50 at CDK2/Cyclin E was 20 to 30 nM; at CDK1/Cyclin B1, GST-tag, not below 500 nM.
The matching figures for `FC[C@@H](c1ccccc1)n1ncc2ncc(Nc3cc(OC(F)F)[nH]n3)nc21` (single isomer, unassigned) [Example 89, (R)-N-(5-(difluoromethoxy)-1H-pyrazol-3-yl)-1-(2-fluoro-1-phenylethyl)-1H-pyrazolo[3,4-b]pyrazin-6-amine or (S)-N-(5-(difluoromethoxy)-1H-pyrazol-3-yl)-1-(2-fluoro-1-phenylethyl)-1H-pyrazolo[3,4-b]pyrazin-6-amine]: not above 10 nM and not below 500 nM.
As to `C[C@H](c1cccc(F)n1)n1ncc2ncc(Nc3cc(OC(F)F)[nH]n3)nc21` (single isomer, unassigned) [Example 156, (S)-N-(5-(difluoromethoxy)-1H-pyrazol-3-yl)-1-(1-(6-fluoropyridin-2-yl)ethyl)-1H-pyrazolo[3,4-b]pyrazin-6-amine or (R)-N-(5-(difluoromethoxy)-1H-pyrazol-3-yl)-1-(1-(6-fluoropyridin-2-yl)ethyl)-1H-pyrazolo[3,4-b]pyrazin-6-amine], the IC50 on CDK2/Cyclin E is not above 10 nM; on CDK1/Cyclin B1, GST-tag, not below 500 nM.
Turning to `FC(F)Oc1cc(Nc2cnc3cnn(C[C@H]4[C@@H]5COC[C@@H]54)c3n2)n[nH]1` [Example 81, 1-(((1R,5S,6s)-3-oxabicyclo[3.1.0]hexan-6-yl)methyl)-N-(5-(difluoromethoxy)-1H-pyrazol-3-yl)-1H-pyrazolo[3,4-b]pyrazin-6-amine], the IC50 at CDK2/Cyclin E is not above 10 nM; on CDK1/Cyclin B1, GST-tag it was not below 500 nM.
For the compound `CC1(Cn2ncc3ncc(Nc4cc(OC(F)F)[nH]n4)nc32)CC1` [Example 98, N-(5-(difluoromethoxy)-1H-pyrazol-3-yl)-1-((1-methylcyclopropyl)methyl)-1H-pyrazolo[3,4-b]pyrazin-6-amine], the IC50 on CDK2/Cyclin E is 10 to 20 nM; at CDK1/Cyclin B1, GST-tag it was not below 500 nM.
Turning to `FC(F)Oc1cc(Nc2cnc3cnn(Cc4cccc5[nH]ncc45)c3n2)n[nH]1` [Example 128, 1-((1H-indazol-4-yl)methyl)-N-(5-(difluoromethoxy)-1H-pyrazol-3-yl)-1H-pyrazolo[3,4-b]pyrazin-6-amine], the IC50 at CDK2/Cyclin E is 30 to 100 nM; at CDK1/Cyclin B1, GST-tag it was not below 500 nM.
On the same counts, the results for `N#C[C@H]1C[C@H](Cn2ncc3ncc(Nc4cc(OC(F)F)[nH]n4)nc32)C1` (single isomer, unassigned) [Example 191, (1s,3s)-3-((6-((5-(difluoromethoxy)-1H-pyrazol-3-yl)amino)-1H-pyrazolo[3,4-b]pyrazin-1-yl)methyl)cyclobutane-1-carbonitrile or (1r,3r)-3-((6-((5-(difluoromethoxy)-1H-pyrazol-3-yl)amino)-1H-pyrazolo[3,4-b]pyrazin-1-yl)methyl)cyclobutane-1-carbonitrile] are not above 10 nM and 100 to 500 nM.
On the same counts, the results for `C[C@@H](c1cccnc1F)n1nc(Cl)c2ncc(Nc3cc(OC(F)F)[nH]n3)nc21` [Example 17, (S)-3-chloro-N-(5-(difluoromethoxy)-1H-pyrazol-3-yl)-1-(1-(2-fluoropyridin-3-yl)ethyl)-1H-pyrazolo[3,4-b]pyrazin-6-amine] are not above 10 nM and 100 to 500 nM.
For `[2H]C([2H])(C)n1ncc2ncc(Nc3cc(OC(F)F)[nH]n3)nc21` [Example 225, N-(5-(difluoromethoxy)-1H-pyrazol-3-yl)-1-(ethyl-1,1-d2)-1H-pyrazolo[3,4-b]pyrazin-6-amine], the IC50 at CDK2/Cyclin E is 30 to 100 nM; on CDK1/Cyclin B1, GST-tag, not below 500 nM.
In the case of `C[C@@H](c1ccc(F)cc1)n1ncc2ncc(Nc3cc(OC(F)F)[nH]n3)nc21` [Example 47, (S)-N-(5-(difluoromethoxy)-1H-pyrazol-3-yl)-1-(1-(4-fluorophenyl)ethyl)-1H-pyrazolo[3,4-b]pyrazin-6-amine], the IC50 is not above 10 nM on CDK2/Cyclin E and not below 500 nM on CDK1/Cyclin B1, GST-tag.
With `Cc1nn(CC2CCOCC2)c2nc(Nc3cc(OC(F)F)[nH]n3)cnc12` [Example 87, N-(5-(difluoromethoxy)-1H-pyrazol-3-yl)-3-methyl-1-((tetrahydro-2H-pyran-4-yl)methyl)-1H-pyrazolo[3,4-b]pyrazin-6-amine], the IC50 is not above 10 nM at CDK2/Cyclin E and 100 to 500 nM on CDK1/Cyclin B1, GST-tag.
With `COc1cc(Nc2cnc3cnn([C@@H](C)c4cccnc4)c3n2)n[nH]1` [Example 67, (S)-N-(5-methoxy-1H-pyrazol-3-yl)-1-(1-(pyridin-3-yl)ethyl)-1H-pyrazolo[3,4-b]pyrazin-6-amine], the IC50 at CDK2/Cyclin E was not above 10 nM; on CDK1/Cyclin B1, GST-tag it was not below 500 nM.
On to `C[C@@H](c1cncs1)n1ncc2ncc(Nc3cc(OC(F)F)[nH]n3)nc21` [Example 58, (S)-N-(5-(difluoromethoxy)-1H-pyrazol-3-yl)-1-(1-(thiazol-5-yl)ethyl)-1H-pyrazolo[3,4-b]pyrazin-6-amine], for which the IC50 at CDK2/Cyclin E was not above 10 nM; on CDK1/Cyclin B1, GST-tag it was not below 500 nM.
The matching figures for `[2H]C([2H])([2H])Oc1cc(Nc2cnc3cnn(Cc4cccnc4)c3n2)n[nH]1` [Example 227, N-(5-(methoxy-d3)-1H-pyrazol-3-yl)-1-(pyridin-3-ylmethyl)-1H-pyrazolo[3,4-b]pyrazin-6-amine]: 10 to 20 nM and not below 500 nM.
